Assays:
HepG2 cells [1] = test: Cellular α-tocopherol concentrations in HepG2 cells (HPLC); format: cell-based; settings: for Difference between the intracellular concentrations of RRR-α-T and all-rac-α-T: HepG2, 7 days; for Amount of free cellular vitamin E compared to control cells: HepG2, 7 days, 10, 30, 80 or 300 μM acetate in the media
Protocol: (§1) HepG2 cells (ATCC HB-8065) were cultured in 6 cm dishes in DMEM medium (GIBCO-Invitrogen, Switzerland) with 10% NU serum™ (Becton Dickinson, Switzerland) containing 1% Pen/Strep and undetectable amounts of vitamin E (detection limit 20 nM). Vitamin E compounds were applied as the acetate derivatives: RRR-α-tocopheryl acetate (Sigma and DSM Nutritional Products Ltd., Switzerland; 99-99.5 weight %, determined by gas chromatography) and all-rac-α-tocopheryl acetate (DSM Nutritional Products Ltd, Kaiseraugst, Switzerland; 98.0-99.5 weight %, determined by gas chromatography) were dissolved in 100% ethanol to prepare stock solutions. Treatment media were prepared by the addition of RRR-α-tocopheryl acetate (RRR-α-Tac) or all-rac-α-tocopheryl acetate (all-rac-α-Tac) to the basic medium at the following final concentrations: 0 (ethanol only, 1% final concentration), 10, 30, 80 and 300 μM. Treatment media were aliquoted and stored at −20° C. The vitamin E acetate treatment was performed for 7 days during the logarithmic growth phase of the cells. All treatment media were exchanged for fresh media every 24 hours. This treatment strategy has been chosen in the attempt to keep vitamin E acetate concentrations stable over time and to reach steady state intracellular vitamin E concentrations at 7 days of supplementation. All treatments were performed in quadruplicate dishes.
Adherent HepG2 cells were trypsinized, collected and washed three times with PBS containing 1% bovine serum albumin. Cells were saponified in a methanolic potassium hydroxide solution. The solution was diluted with 35% ethanol and extracted with hexane/toluene. α-Tocopheryl acetate and hydrolyzed α-tocopherols were quantified by isocratic HPLC analysis.

[2] = animal studies; cited from earlier work
HepG2 cells [3] = test: Dose-dependent gene-transcriptional activity (Affymetrix GeneChip U133A) in HepG2 cells treated for 7 days; format: cell-based; settings: for Difference in EC50 or IC50 values between RRR-α-T and all-rac-α-T / Number of genes dose-dependently regulated: HepG2; for EC50: HepG2, 104 induced genes, read-out: Transcriptional induction potency EC50, Mean ± SD; for EC50 / IC50: 7 days, 0-300 μM α-tocopheryl acetate in the media; for IC50: HepG2, 111 repressed genes, read-out: Transcriptional repression potency IC50, Mean ± SD; for Number of genes dose-dependently regulated: of the 14500 genes on the Affymetrix GeneChip U133A
Protocol: as §1
Cells were washed three times with PBS and lyzed with RTL buffer (Qiagen, Basel, Switzerland). Total RNA isolation was performed using RNeasy mini spin columns (Qiagen) and DNase digested on the columns (RNase-Free DNase Set, Qiagen) according to the manufacturer's description. cRNA preparation and Affymetrix GeneChip (U133A) hybridization were performed as described.
Data processing was carried out using the RACE-A analysis tool (Roche Bioinformatics, Basel, Switzerland) as described. Briefly, the arrays were normalized against the mean of the total sum of Average Difference (AvgDiff) values across all arrays used. Mean Average Difference values (MeanAvgDiff) were calculated as the means of one experiment performed in quadruplicate. Possible outliers were identified using the procedure of Nalimov with a 95% confidence interval. Subsequently, mean change factors (Chgf) for each individual gene were calculated among the different treatment groups and control using pair wise comparisons, and statistical significance was assessed by Student's t-test with prior testing for the normal distribution of the data. Applicant selected for those genes showing a dose-dependent regulation by vitamin E, i.e. maximal MeanAvgDiff>10 combined with a significant (p<0.05) differential Chgf between the vitamin E supplemented groups and the control group. The analysis of the experimental data obtained upon stimulation/treatment of the cells with RRR-α-Tac or all-rac-α-Tac was performed independently from each other.
EC50 and IC50 values, respectively, were determined by applying the standard four parameter model [y=a+(b−a)/(1+(x/c)̂d)] using the XL-Fit Software 3.0 (IDBS Inc. Emeryville, USA), where y is the normalized gene expression, x is the concentration of RRR-α-tocopherol or all-rac-α-tocopherol in the media and c corresponds to the EC50 and IC50 values, respectively. The potency-ratios were calculated as following: EC50RRR-α-T/EC50all-rac-α-T and IC50RRR-α-T/IC50all-rac-α-T.

| Compound | Difference between the intracellular concentrations of RRR-α-T and all-rac-α-T (HepG2 cells [1]) | Amount of free cellular vitamin E compared to control cells (HepG2 cells [1]) | Biological potency relative to all-rac-α-T (times) [2] | Difference in EC50 or IC50 values between RRR-α-T and all-rac-α-T (HepG2 cells [3]) | Potency ratio EC50RRR-α-T/EC50all-rac-α-T, Mean ± SD (HepG2 cells [3]; HepG2, 104 genes) | EC50 (HepG2 cells [3]) [µM] | Potency ratio IC50RRR-α-T/IC50all-rac-α-T, Mean ± SD (HepG2 cells [3]; HepG2, 111 genes) | IC50 (HepG2 cells [3]) [µM] | Overall biopotency factor (mean of all 215 potency ratios RRR-α-T to all-rac-α-T) (HepG2 cells [3]; HepG2, 215 genes) | Potency ratio Overall, Mean ± SD (HepG2 cells [3]; HepG2, 215 genes) | Number of genes dose-dependently regulated (HepG2 cells [3]) |
| --- | --- | --- | --- | --- | --- | --- | --- | --- | --- | --- | --- |
| Cc1c(C)c2c(c(C)c1O)CC[C@@](C)(CCC[C@H](C)CCC[C@H](C)CCCC(C)C)O2 [RRR-α-T, (2R,4′R,8′R)-α-tocopherol] | no significant difference | significantly increased | 1.36 | no statistically significant differences | 0.9 ± 0.6 | 18 ± 10.7 | 1.2 ± 0.7 | 6.4 ± 6.8 | 1.05 | 1.05 ± 0.7 | 215 |
| Cc1c(C)c2c(c(C)c1O)CCC(C)(CCCC(C)CCCC(C)CCCC(C)C)O2 (racemic) [all-rac-α-T, all-rac-α-tocopherol] | no significant difference | significantly increased | – | no statistically significant differences | – | 14 ± 9.1 | – | 6 ± 4.5 | – | – | 215 |
